Assay results reported in US7642378B2, “Lipid lowering biphenylcarboxamides” (Janssen Pharmaceutica NV, priority 2001, dated 2010).

Columns and labels:
[1] = system: Secretion of ApoB; test: Quantification of the secretion of ApoB; assay type: cell-based; details: HepG2 cells, 24 hours of incubation with test compound
Procedure: HepG2 cells were cultured in 24-well plates in MEM Rega 3 containing 10% fetal calf serum. At 70% confluency, the medium was changed and the test compound or carrier (DMSO, 0.4% final concentration) was added. After 24 hours of incubation, the medium was transferred to Eppendorf tubes and cleared by centrifugation. A sheep antibody directed against either apoB was added to the supernatant and the mixture was kept at 8° C. for 24 hours. Then, rabbit anti-sheep antibody was added and the immune complex was allowed to precipitate for 24 hours at 8° C. The immunoprecipitate was pelleted by centrifugation for 25 minutes at 1320 g and washed twice with a buffer containing 40 mM Mops, 40 mM NaH2PO4, 100 mM NaF, 0.2 mM DTT, 5 mM EDTA, 5 mM EGTA, 1% Triton-X-100, 0.5% sodium deoxycholate (DOC), 0.1% SDS, 0.2 μM leupeptin and 0.2 μM PMSF. Radioactivity in the pellet was quantified by liquid scintillation counting.
Resulting IC50 values are enumerated in Table C. 1.

SMILES: COC(=O)COC(=O)C(c1ccccc1)N1CCN(c2ccc(NC(=O)c3ccccc3-c3ccc(C(F)(F)F)cc3)cc2)CC1 (stereo not drawn) [Co. No. 14, 2-methoxy-2-oxoethyl α-phenyl-4-[4-[[[4′-(trifluoromethyl)[1,1′-biphenyl]-2-yl]carbonyl]amino]phenyl]-1-piperazineacetate]
- melting point: 106 °C

SMILES: COC(=O)CNC(=O)C(c1ccccc1)C1CCN(c2ccc(NC(=O)c3ccccc3-c3ccc(C(C)(C)C)cc3)cc2)CC1 (stereo not drawn) [Co. No. 145, (B)—N-[[1-[4-[[[4′-(1,1-dimethylethyl)[1,1′-biphenyl]-2-yl]carbonyl]amino]phenyl]-4-piperidinyl]phenylacetyl]-glycine methyl ester]
- melting point: 119.9 to 120 °C

SMILES: COC(=O)COC(=O)C(c1ccccc1)N1CCN(c2ccc(NC(=O)c3ccccc3-c3ccc(C(F)(F)F)cc3)cc2)CC1 (stereo not drawn) [compound 14]
- pIC50 values (=−log IC50 value) [1]: 6.591
